Experimental data reported in patent US20250376483A1, “PRODRUGS OF PAN-KRAS INHIBITORS” (Mirati Therapeutics, Inc., priority 2022, published 2025).

Assays:
[1] = Plasma Stability Assay (human plasma); assay type: in vitro ADME; conditions: both sexes; pooled human plasma, heparin, final conc. 2 μM, 37° C., 0-120 min; read-out: Human Plasma Stability t1/2
Method in brief: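 Compound at 2 μM final in pooled heparinised plasma (3 male, 3 female), incubated at 37° C with sampling at 0, 10, 30, 60 and 120 min. Acetonitrile stop, LC-MS/MS; % remaining from analyte/internal-standard peak area ratio relative to T0.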

[2] = Whole Blood Stability Assay (mouse whole blood); assay type: in vitro ADME; conditions: CD-1 mouse blood, EDTA-K2, final conc. 2 μM, 37° C., 0-120 min; for half-life at 2 μM: male, fresh whole blood, read-out: Mouse Whole Blood Stability t1/2
Method in brief: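 Compound at 2 μM final was incubated at 37 °C in fresh EDTA-K2 blood from male CD-1 mice. Samples at 0, 10, 30, 60 and 120 min were protein-precipitated with acetonitrile and analysed by LC-MS/MS. % remaining was derived from analyte/internal-standard peak area ratios.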

Structure (SMILES) | half-life at 2 μM [1] [min] | half-life at 2 μM [2] [min] | Mouse Whole Blood Stability t1/2 [2] [min]
CCCCCCCCCC(=O)Oc1cc(N2CCc3c(nc(OC[C@@]45CCCN4C[C@H](F)C5)nc3N3CCC[C@]4(C3)NC(=O)NC4=O)C2)c2c(CC)c(F)ccc2c1 [Example 51, 4-(4-((R)-2,4-dioxo-1,3,7-triazaspiro[4.5]decan-7-yl)-2-(((2R,7aS)-2-fluorotetrahydro-1H-pyrrolizin-7a(5H)-yl)methoxy)-5,8-dihydropyrido[3,4-d]pyrimidin-7(6H)-yl)-5-ethyl-6-fluoronaphthalen-2-yl decanoate] | 235 | 4 | 
CCc1c(F)ccc2cc(OC(=O)C3CCCC3)cc(N3CCc4c(nc(OC[C@@]56CCCN5C[C@H](F)C6)nc4N4CCC[C@]5(C4)NC(=O)NC5=O)C3)c12 [Example 42, 4-(4-((R)-2,4-dioxo-1,3,7-triazaspiro[4.5]decan-7-yl)-2-(((2R,7aS)-2-fluorotetrahydro-1H-pyrrolizin-7a(5H)-yl)methoxy)-5,8-dihydropyrido[3,4-d]pyrimidin-7(6H)-yl)-5-ethyl-6-fluoronaphthalen-2-yl cyclopentanecarboxylate] | 79 |  | 1
CCc1c(F)ccc2cc(OC(=O)C(C)C)cc(N3CCc4c(nc(OC[C@@]56CCCN5C[C@H](F)C6)nc4N4CCC[C@]5(C4)NC(=O)NC5=O)C3)c12 [Example 34, 4-(4-((R)-2,4-dioxo-1,3,7-triazaspiro[4.5]decan-7-yl)-2-(((2R,7aS)-2-fluorotetrahydro-1H-pyrrolizin-7a(5H)-yl)methoxy)-5,8-dihydropyrido[3,4-d]pyrimidin-7(6H)-yl)-5-ethyl-6-fluoronaphthalen-2-yl isobutyrate] | 210 |  | 1
CCc1c(F)ccc2cc(OC(=O)N3CCCCCCC3)cc(N3CCc4c(nc(OC[C@@]56CCCN5C[C@H](F)C6)nc4N4CCC[C@]5(C4)NC(=O)NC5=O)C3)c12 [Example 54, 4-(4-((R)-2,4-dioxo-1,3,7-triazaspiro[4.5]decan-7-yl)-2-(((2R,7aS)-2-fluorotetrahydro-1H-pyrrolizin-7a(5H)-yl)methoxy)-5,8-dihydropyrido[3,4-d]pyrimidin-7(6H)-yl)-5-ethyl-6-fluoronaphthalen-2-yl azocane-1-carboxylate] | > 289 | > 289 | 
CCc1c(F)ccc2cc(OC(=O)C3CCC3)cc(N3CCc4c(nc(OC[C@@]56CCCN5C[C@H](F)C6)nc4N4CCC[C@]5(C4)NC(=O)NC5=O)C3)c12 [Example 64, 4-(4-((R)-2,4-dioxo-1,3,7-triazaspiro[4.5]decan-7-yl)-2-(((2R,7aS)-2-fluorotetrahydro-1H-pyrrolizin-7a(5H)-yl)methoxy)-5,8-dihydropyrido[3,4-d]pyrimidin-7(6H)-yl)-5-ethyl-6-fluoronaphthalen-2-yl cyclobutanecarboxylate] | 33 | 2 | 
CCc1c(F)ccc2cc(OC(C)=O)cc(-c3ncc4c(N5C[C@@H]6C[C@H](C5)[C@H](O)C6)nc(OC[C@@]56CCCN5C[C@H](F)C6)nc4c3F)c12 [Example 1, 5-ethyl-6-fluoro-4-(8-fluoro-2-(((2R,7aS)-2-fluorotetrahydro-1H-pyrrolizin-7a(5H)-yl)methoxy)-4-((1R,5R,6R)-6-hydroxy-3-azabicyclo[3.2.1]octan-3-yl)pyrido[4,3-d]pyrimidin-7-yl)naphthalen-2-yl acetate] | 23 | 3 | 
CCc1c(F)ccc2cc(OC(=O)OC(C)(C)C)cc(N3CCc4c(nc(OC[C@@]56CCCN5C[C@H](F)C6)nc4N4CCC[C@]5(C4)NC(=O)NC5=O)C3)c12 [Example 46, tert-butyl (4-(4-((R)-2,4-dioxo-1,3,7-triazaspiro[4.5]decan-7-yl)-2-(((2R,7aS)-2-fluorotetrahydro-1H-pyrrolizin-7a(5H)-yl)methoxy)-5,8-dihydropyrido[3,4-d]pyrimidin-7(6H)-yl)-5-ethyl-6-fluoronaphthalen-2-yl) carbonate] | 116 | 13 | 
CCc1c(F)ccc2cc(OC(=O)C(C)(C)C)cc(N3CCc4c(nc(OC[C@@]56CCCN5C[C@H](F)C6)nc4N4CCC[C@]5(C4)NC(=O)NC5=O)C3)c12 [Example 39, 4-(4-((R)-2,4-dioxo-1,3,7-triazaspiro[4.5]decan-7-yl)-2-(((2R,7aS)-2-fluorotetrahydro-1H-pyrrolizin-7a(5H)-yl)methoxy)-5,8-dihydropyrido[3,4-d]pyrimidin-7(6H)-yl)-5-ethyl-6-fluoronaphthalen-2-yl pivalate] | > 289 |  | 1
CCc1c(F)ccc2cc(OC(=O)C3CC3)cc(-c3ncc4c(N5C[C@@H]6C[C@H](C5)[C@H](O)C6)nc(OC[C@@]56CCCN5C[C@H](F)C6)nc4c3F)c12 [Example 4, 5-ethyl-6-fluoro-4-(8-fluoro-2-(((2R,7aS)-2-fluorotetrahydro-1H-pyrrolizin-7a(5H)-yl)methoxy)-4-((1R,5R,6R)-6-hydroxy-3-azabicyclo[3.2.1]octan-3-yl)pyrido[4,3-d]pyrimidin-7-yl)naphthalen-2-yl cyclopropanecarboxylate] | 17 | 5 | 
CCc1c(F)ccc2cc(OC(=O)N3CCCCC3)cc(-c3ncc4c(N5C[C@@H]6C[C@H](C5)[C@H](O)C6)nc(OC[C@@]56CCCN5C[C@H](F)C6)nc4c3F)c12 [Example 7, 5-ethyl-6-fluoro-4-(8-fluoro-2-(((2R,7aS)-2-fluorotetrahydro-1H-pyrrolizin-7a(5H)-yl)methoxy)-4-((1R,5R,6R)-6-hydroxy-3-azabicyclo[3.2.1]octan-3-yl)pyrido[4,3-d]pyrimidin-7-yl)naphthalen-2-yl piperidine-1-carboxylate] | > 289 | > 289 | 
CCc1c(F)ccc2cc(OC(=O)C34CCC(C3)C4)cc(N3CCc4c(nc(OC[C@@]56CCCN5C[C@H](F)C6)nc4N4CCC[C@]5(C4)NC(=O)NC5=O)C3)c12 [Example 67, 4-(4-((R)-2,4-dioxo-1,3,7-triazaspiro[4.5]decan-7-yl)-2-(((2R,7aS)-2-fluorotetrahydro-1H-pyrrolizin-7a(5H)-yl)methoxy)-5,8-dihydropyrido[3,4-d]pyrimidin-7(6H)-yl)-5-ethyl-6-fluoronaphthalen-2-yl bicyclo[2.1.1]hexane-1-carboxylate] | 267 |  | 1
CCc1c(F)ccc2cc(OC(=O)N(C)C)cc(-c3ncc4c(N5C[C@@H]6C[C@H](C5)[C@H](O)C6)nc(OC[C@@]56CCCN5C[C@H](F)C6)nc4c3F)c12 [Example 6, 5-ethyl-6-fluoro-4-(8-fluoro-2-(((2R,7aS)-2-fluorotetrahydro-1H-pyrrolizin-7a(5H)-yl)methoxy)-4-((1R,5R,6R)-6-hydroxy-3-azabicyclo[3.2.1]octan-3-yl)pyrido[4,3-d]pyrimidin-7-yl)naphthalen-2-yl dimethylcarbamate] | > 289 | > 289 | 
CCc1c(F)ccc2cc(OC(=O)N3CCCCCC3)cc(N3CCc4c(nc(OC[C@@]56CCCN5C[C@H](F)C6)nc4N4CCC[C@]5(C4)NC(=O)NC5=O)C3)c12 [Example 53, 4-(4-((R)-2,4-dioxo-1,3,7-triazaspiro[4.5]decan-7-yl)-2-(((2R,7aS)-2-fluorotetrahydro-1H-pyrrolizin-7a(5H)-yl)methoxy)-5,8-dihydropyrido[3,4-d]pyrimidin-7(6H)-yl)-5-ethyl-6-fluoronaphthalen-2-yl azepane-1-carboxylate] | > 289 | > 289 | 
CCc1c(F)ccc2cc(OC(=O)OC(C)C)cc(-c3ncc4c(N5C[C@@H]6C[C@H](C5)[C@H](O)C6)nc(OC[C@@]56CCCN5C[C@H](F)C6)nc4c3F)c12 [Example 15, 5-ethyl-6-fluoro-4-(8-fluoro-2-(((2R,7aS)-2-fluorotetrahydro-1H-pyrrolizin-7a(5H)-yl)methoxy)-4-((1R,5R,6R)-6-hydroxy-3-azabicyclo[3.2.1]octan-3-yl)pyrido[4,3-d]pyrimidin-7-yl)naphthalen-2-yl isopropyl carbonate] | 146 | < 5 | 
CCc1c(F)ccc2cc(OC(=O)C3(C)COC3)cc(N3CCc4c(nc(OC[C@@]56CCCN5C[C@H](F)C6)nc4N4CCC[C@]5(C4)NC(=O)NC5=O)C3)c12 [Example 62, 4-(4-((R)-2,4-dioxo-1,3,7-triazaspiro[4.5]decan-7-yl)-2-(((2R,7aS)-2-fluorotetrahydro-1H-pyrrolizin-7a(5H)-yl)methoxy)-5,8-dihydropyrido[3,4-d]pyrimidin-7(6H)-yl)-5-ethyl-6-fluoronaphthalen-2-yl 3-methyloxetane-3-carboxylate] | 38 |  | 1
CCc1c(F)ccc2cc(OCOC(=O)N(C)C)cc(N3CCc4c(nc(OC[C@@]56CCCN5C[C@H](F)C6)nc4N4CCC[C@]5(C4)NC(=O)NC5=O)C3)c12 [Example 52, ((4-(4-((R)-2,4-dioxo-1,3,7-triazaspiro[4.5]decan-7-yl)-2-(((2R,7aS)-2-fluorotetrahydro-1H-pyrrolizin-7a(5H)-yl)methoxy)-5,8-dihydropyrido[3,4-d]pyrimidin-7(6H)-yl)-5-ethyl-6-fluoronaphthalen-2-yl)oxy)methyl dimethylcarbamate] | > 289 | > 289 | 
CCCC(=O)Oc1cc(N2CCc3c(nc(OC[C@@]45CCCN4C[C@H](F)C5)nc3N3CCC[C@]4(C3)NC(=O)NC4=O)C2)c2c(CC)c(F)ccc2c1 [Example 33, 4-(4-((R)-2,4-dioxo-1,3,7-triazaspiro[4.5]decan-7-yl)-2-(((2R,7aS)-2-fluorotetrahydro-1H-pyrrolizin-7a(5H)-yl)methoxy)-5,8-dihydropyrido[3,4-d]pyrimidin-7(6H)-yl)-5-ethyl-6-fluoronaphthalen-2-yl butyrate] | 62 | < 5 | 
